The text below walks through data of BindingDB's records for doi:10.1021/cb900195c (University of Pittsburgh, 2009).

Some results are limits rather than exact numbers.

Broadly, the IC50 is the concentration needed to halve the response being measured.

Test [1] addresses Protein Nef/Tyrosine-protein kinase HCK (Homo sapiens, UniProt P03406+P08631). The experiment in a line: In Vitro Kinase Assay. As to conditions: 25 °C. The text has this:
(§1) In vitro kinase activity of Nef-Hck complex and Hck alone using Z'-lyte kinase assay system and Tyr2 peptide substrate from Invitrogen.

The target in test [2] is Tyrosine-protein kinase HCK (Homo sapiens, UniProt P08631). As to the kind of experiment: In Vitro Kinase Assay. To be noted: 25 °C.
Tyrosine-protein kinase HCK, sequence (P08631 whole entry): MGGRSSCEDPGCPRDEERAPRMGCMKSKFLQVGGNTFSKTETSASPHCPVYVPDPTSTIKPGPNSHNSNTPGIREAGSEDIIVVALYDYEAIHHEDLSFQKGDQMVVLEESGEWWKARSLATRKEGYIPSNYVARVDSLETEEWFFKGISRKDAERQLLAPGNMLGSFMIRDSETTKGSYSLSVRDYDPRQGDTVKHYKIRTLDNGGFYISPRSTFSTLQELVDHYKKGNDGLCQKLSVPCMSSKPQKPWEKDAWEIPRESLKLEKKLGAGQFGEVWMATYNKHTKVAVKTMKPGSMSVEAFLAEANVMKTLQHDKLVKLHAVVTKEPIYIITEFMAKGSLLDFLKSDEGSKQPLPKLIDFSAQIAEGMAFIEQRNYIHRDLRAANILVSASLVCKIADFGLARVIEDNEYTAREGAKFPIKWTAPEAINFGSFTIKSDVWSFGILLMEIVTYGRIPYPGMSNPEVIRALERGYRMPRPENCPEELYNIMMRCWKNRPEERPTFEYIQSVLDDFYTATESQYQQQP
From the text: as §1

Protein Nef/Tyrosine-protein kinase HCK, sequence (P08631 whole entry, other chains not shown): as the sequence (P08631 whole entry) above

In the case of `Nc1ncnc2oc(-c3ccccc3)c(-c3ccccc3)c12` [DFP-4A], the IC50 in test [1] and in test [2] was more than 30 µM throughout.

On to `OCCCNc1ncnc2oc(-c3ccccc3)c(-c3ccccc3)c12` [DFP-4AP], for which the IC50 in test [1] came to 5.1 µM; in test [2], 12.8 µM.

In the case of `c1ccc(-c2oc3ncnc(NCCCc4ccco4)c3c2-c2ccccc2)cc1` [DFP-4APF], the values for the IC50 in test [1] and in test [2] were 2 µM and more than 30 µM, respectively.

For the compound `OCCCCNc1ncnc2oc(-c3ccccc3)c(-c3ccccc3)c12` [DFP-4AB], the IC50 in test [1] is 16 µM; in test [2] it was more than 30 µM.
